From article PMC12469971 (Gels, 2025)
≈ marks a conversion by molar mass, not a printed value. Where “and” joins values, the source holds several entries; their conditions need not be identical. Identical values can stand only once. Like-named read-outs stand apart in the source and are kept apart here. Blank lines part the entries; values can stand above or below the compound they belong to.

Experiments:
[1] = Antioxidant activity, DPPH assay; type: biochemical; settings: not UV-irradiated; curcumin concentration; 40 min
Protocol: The samples were vortexed for 20 to 30 s, and their absorbance was measured at 517 nm after 40 min using a UV spectrophotometer (BOECO S-22) (BOECO, Hamburg, Germany). Ethanol is used for calibration, and ascorbic acid serves as a standard for antioxidant activity.
The percentage of DPPH inhibition for each sample type was determined, and the IC50 values were calculated based on the concentration (μg/mL) vs. inhibition plots. Ascorbic acid was used as a standard. All measurements were performed in triplicate at room temperature.

C6 tumor cell line = assay: Cell apoptosis by Annexin V-FITC/PI flow cytometry; type: cell-based, Rattus norvegicus; settings: C6, 7.5 µg/mL, 24 h
Source text: (§1) The possible mechanism of action for the analyzed nanoparticles was established by determining the process of cellular apoptosis using flow cytometry, a method that enabled the assessment of the percentage of live, dead, pre-apoptotic, and apoptotic cells (Table S2 and Figure 8).
(§2) Apoptosis, also known as programmed cell death, is a natural process for eliminating cells. It involves the formation of membrane vesicles, chromatin condensation, and DNA fragmentation. Annexin V, which is a calcium-dependent protein, binds with high affinity to phosphatidylserine (PS), which moves from the inner to the outer membrane during apoptosis. When Annexin V is fluorescently labeled, this PS exposure can be detected using flow cytometry. The presence of PS signals macrophages to clear the cell through phagocytosis. […] In late apoptotic and necrotic cells, both the plasma and nuclear membrane integrity is compromised, enabling propidium iodide to penetrate the membrane, bind to nucleic acids, and produce red fluorescence. Cells were cultured in 24-well plates at a density of 50,000 cells per well to create a monolayer. After 24 h of incubation, test compounds (free drugs or nanoparticle formulations) were applied at a concentration of 7.5 µg/mL and incubated for an additional 24 h. Flow cytometry was used to process and analyze the cells according to the manufacturer’s instructions for the assay kit. For interpretation, cells that were negative for both propidium iodide (PI) and Annexin V were classified as viable; cells that were Annexin V-positive and PI-negative were considered apoptotic; and cells that were positive for both markers were identified as necrotic.

V79-4 normal cell line = assay: Cell apoptosis by Annexin V-FITC/PI flow cytometry; type: cell-based, Cricetulus griseus; settings: V79-4, 7.5 µg/mL, 24 h
Source text: as §1, §2

[2] = PAMPA-BBB permeability assay (kit PMBBB-096); type: in vitro ADME; settings: for Papp at 18 h, 500 μM: PAMPA, 37 °C
Protocol: The in vitro parallel artificial permeability assay (PAMPA, Kit PMBBB-096 from BioAssay Systems (Hayward, CA, USA)) was employed to evaluate whether nanoparticles can cross the BBB. […] As a negative standard, we used the low-permeability (LP) and high-permeability (HP) standards from the PAMPA-BBB kit from Bioassay.
Specifically, the PMBBB-096 (BioAssay Systems Hayward, CA, USA) kit supports in vitro assessment of BBB permeability. […] Three hundred microliters (300 μL) of 0.01 M PBS with 5% DMSO was added to the acceptor plate (96-well PTFE acceptor plates) (BioAssay Systems Hayward, CA, USA). The donor plate (96-well polycarbonate filter-based donor plates, pore size 0.45 μm) was coated with 5 μL of lyophilized brain lipid extract solution, made by dissolving the brain extract in 400 μL of dodecane. […] In parallel, 200 μM equilibrium standards were prepared in separate Eppendorf tubes for each test and control sample. In Eppendorf tubes, 80 μL of test solutions or the control standard at a concentration of 500 μM were mixed with 120 μL of PBS solution containing 5% DMSO. The blank was prepared using the PBS solution with 5% DMSO. The next day, equilibrium standards and the blank solution were utilized, and the acceptor compartment’s solution was analyzed. […] Based on the absorbance value determined for each respective test sample and the permeability control standard, the permeability rate (Pe) was calculated using the following Equation (4):(4) Pe=C×−ln1−ODA/ODE,cm/s where ODA represents the absorbance of the acceptor plate solution minus the absorbance of the blank, and ODE indicates the absorbance of the equilibrium standard minus the absorbance of the blank.

Cytotoxicity, MTT assay = settings: Chinese hamster, V79-4 lung fibroblasts (ATCC CCL-93), 48 h; for viability at 48 h, 1.875 μg/mL: Cell viability (%) V79-4, 1.875 μg/mL (nanoparticles or free drug); for viability at 48 h, 3.75 μg/mL: Cell viability (%) V79-4, 3.75 μg/mL; for viability at 48 h, 7.5 μg/mL: Cell viability (%) V79-4, 7.5 μg/mL; for viability at 48 h, 15 μg/mL: Cell viability (%) V79-4, 15 μg/mL
Protocol: (§3) This IC50 value was derived from a graph plotting the percentage of dead cells against the drug concentration in the samples. […] A lower IC50 value indicates the higher cytotoxicity of the samples.
(§4) In both cases, the growth media were supplemented with 10% fetal bovine serum (SFB, Euroclone S.p.A., Milan, Italy) and 1% antibiotic solution, containing penicillin at […] and streptomycin at 100 IU/mL (Capricorn Scientific GmbH, Ebsdorfergrund, Germany), maintained at a temperature of 37 °C in a humidified environment with 5% CO2 [130]. Products tested: Albumin nanoparticles obtained through self-assembly and crosslinking with OG were evaluated.
(§5) This method relies on the conversion of MTT, a water-soluble yellow compound, into dark blue, water-insoluble formazan by the mitochondrial dehydrogenases of living cells. […] After treatment, the medium was removed, the cells were washed with phosphate-buffered saline (PBS), and then incubated with 100 μL of fresh medium and 10 μL of MTT (5 mg/mL) for 3 h at 37 °C. The resulting formazan crystals were solubilized with 50 μL of DMSO, and absorbance was measured at 570 nm using the EZ Read 400 reader (Biochrom, Cambridge, UK). The intensity of the resulting color directly correlates with the number of viable cells, and viability was calculated using Equation (6):Cell viability (%) = Esample/Econtrol × 100, where E = extinction(6)

C6 tumor cells = assay: Cytotoxicity, MTT assay; settings: for Percentage of dead cells per C6 cell line (cytotoxic effect) / viability at 1.875 µg/mL / viability at 3.75 µg/mL / viability at 7.5 µg/mL / viability at 15 µg/mL: 48 h; for viability at 1.875 µg/mL / viability at 3.75 µg/mL / viability at 7.5 µg/mL / viability at 15 µg/mL / IC50: Rattus norvegicus; for viability at 1.875 µg/mL: read-out: Cell viability (%) C6, 1.875 μg/mL (nanoparticles or free drug), 48 h; for viability at 3.75 µg/mL: read-out: Cell viability (%) C6, 3.75 μg/mL, 48 h; for viability at 7.5 µg/mL: read-out: Cell viability (%) C6, 7.5 μg/mL, 48 h; for viability at 15 µg/mL: read-out: Cell viability (%) C6, 15 μg/mL, 48 h; for IC50: C6, 48 h
Protocol: as §3, §4, §5

normal V79-4 cells = assay: Cytotoxicity, MTT assay; settings: for Percentage of dead cells per V79-4 cell line (cytotoxic effect): 48 h; for IC50: Cricetulus griseus, V79-4, 48 h
Protocol: as §3, §4, §5

[3] = set-up: method as in PMID 32494134, PMID 35684445, PMID 25751368; settings: rapidly hydrolyzed in physiological conditions; cited from earlier work
[4] = pH stability of free and encapsulated curcumin; type: physicochemical; set-up: degradation rate constant k: unit: h⁻¹; settings: dark; for half-life at 4 μg/mL: read-out: degradation half-life t1/2 (converted)
Protocol: The samples were maintained at 37 °C in the dark, in closed containers, for 8 h. […] The particles were maintained at 37 °C in an oven (AG-System, F.lli Galli G. & P., Milano, Italia) protected from light and air exposure. […] The amount of curcumin found in the samples was then determined using a Nanodrop spectrophotometer. […] The half-life (t1/2) for first-order reactions depends solely on the degradation rate constant, k, and is independent of the substance’s initial concentration. All measurements were conducted in triplicate, and the results are reported as average values ± standard deviation (STDev).

[5] = Light stability of free and encapsulated curcumin (natural light and air); type: physicochemical
Protocol: The analyzed HSA nanoparticles were weighed and then exposed to air and natural light for 30 days in Petri dishes. […] All determinations were performed in triplicate, and the results are presented as mean values ± standard deviation (STDev).

[6] = read-out: IC50 μg/mL for TMZ/CURC on the C6 Cell Line
[7] = read-out: IC50 μg/mL for TMZ/CURC on the V79-4 Cell Line

IC50 (DPPH) [1]: 4.3 µg/mL (≈ 24.4 µM)
Structure (SMILES): O=C1O[C@H]([C@@H](O)CO)C(O)=C1O [Ascorbic acid, ascorbic acid]

Structure (SMILES): Cn1nnc2c(C(N)=O)ncn2c1=O [TMZ, temozolomide]
Apoptotic cells (%) (C6 tumor cell line): 33.59%
Dead cells (%) (C6 tumor cell line): 16.45%
Living cells (%) (C6 tumor cell line): 40.08%
Preapoptotic cells (%) (C6 tumor cell line): 9.88%
Apoptotic cells (%) (V79-4 normal cell line): 24.86%
Dead cells (%) (V79-4 normal cell line): 15.17%
Living cells (%) (V79-4 normal cell line): 49.36%
Preapoptotic cells (%) (V79-4 normal cell line): 10.61%
Papp at 18 h, 500 μM ([2]; pH 7.4, PAMPA-BBB, read at 327 nm, read-out: Permeability rate, Pe (TMZ)): 0.76 ×10⁻⁶ cm/s
BBB permeability category ([2]; PAMPA-BBB, in words): low permeability
viability at 48 h, 1.875 μg/mL (Cytotoxicity, MTT assay): 75.8%
viability at 48 h, 3.75 μg/mL (Cytotoxicity, MTT assay): 67%
viability at 48 h, 7.5 μg/mL (Cytotoxicity, MTT assay): 60.4%
viability at 48 h, 15 μg/mL (Cytotoxicity, MTT assay): 54.5%
Percentage of dead cells per C6 cell line (cytotoxic effect) (C6 tumor cells; 1.875 μg/mL): 37.7% and 34.88%
Percentage of dead cells per C6 cell line (cytotoxic effect) (C6 tumor cells; 3.75 μg/mL): 42.5%
Percentage of dead cells per C6 cell line (cytotoxic effect) (C6 tumor cells; 7.5 μg/mL): 47.05%
Percentage of dead cells per C6 cell line (cytotoxic effect) (C6 tumor cells; 15 μg/mL): 60.95% and 59.18%
viability at 1.875 µg/mL (C6 tumor cells): 62.3%
viability at 3.75 µg/mL (C6 tumor cells): 57.5%
viability at 7.5 µg/mL (C6 tumor cells): 53%
viability at 15 µg/mL (C6 tumor cells): 39%
IC50 (C6 tumor cells; read-out: IC50 μg/mL for TMZ on the C6 Cell Line): 8.75 µg/mL (≈ 45.1 µM)
IC50 (C6 tumor cells; [6]): 8.75 µg/mL (≈ 45.1 µM)
Percentage of dead cells per V79-4 cell line (cytotoxic effect) (normal V79-4 cells; 1.875 μg/mL): 24.16%
Percentage of dead cells per V79-4 cell line (cytotoxic effect) (normal V79-4 cells; 3.75 μg/mL): 33.05%
Percentage of dead cells per V79-4 cell line (cytotoxic effect) (normal V79-4 cells; 7.5 μg/mL): 39.64%
Percentage of dead cells per V79-4 cell line (cytotoxic effect) (normal V79-4 cells; 15 μg/mL): 45.53%
IC50 (normal V79-4 cells; read-out: IC50 μg/mL for TMZ on the V79-4 Cell Line): 16.8 µg/mL (≈ 86.7 µM)
IC50 (normal V79-4 cells; [7]): 16.8 µg/mL (≈ 86.7 µM)
half-life [3]: 1.8 h

Papp at 18 h, 500 μM ([2]; pH 7.4, Permeability rate, Pe (Curcumin), PAMPA-BBB, read at 425 nm): 0.21 ×10⁻⁶ cm/s
half-life at 4 μg/mL ([4]; buffer solution (pH 3), pH 3, 37 °C): 462 min
half-life at 4 μg/mL ([4]; buffer solution (pH 9), pH 9, 37 °C): 138 min
half-life at 4 μg/mL ([4]; buffer solution, pH 6.8, 37 °C): 390 min
half-life at 4 μg/mL ([4]; buffer solution, pH 7.4, 37 °C): 348 min
Undegraded Curcumin (%) 1 h ([4]; pH 3, 37 °C): 76%
Undegraded Curcumin (%) 5 h ([4]; pH 3, 37 °C): 55.7%
Undegraded Curcumin (%) 8 h ([4]; pH 3, 37 °C): 47.6%
degradation rate constant k ([4]; pH 3, 37 °C): 0.091
Undegraded Curcumin (%) 1 h ([4]; pH 6.8, 37 °C): 76.4%
Undegraded Curcumin (%) 5 h ([4]; pH 6.8, 37 °C): 56.8%
Undegraded Curcumin (%) 8 h ([4]; pH 6.8, 37 °C): 43.7%
degradation rate constant k ([4]; pH 6.8, 37 °C): 0.107
Undegraded Curcumin (%) 1 h ([4]; pH 7.4, 37 °C): 77%
Undegraded Curcumin (%) 5 h ([4]; pH 7.4, 37 °C): 52.7%
Undegraded Curcumin (%) 8 h ([4]; pH 7.4, 37 °C): 41.1%
degradation rate constant k ([4]; pH 7.4, 37 °C): 0.119
Undegraded Curcumin (%) 1 h ([4]; pH 9, 37 °C): 61%
Undegraded Curcumin (%) 5 h ([4]; pH 9, 37 °C): 21%
Undegraded Curcumin (%) 8 h ([4]; pH 9, 37 °C): 8.6%
degradation rate constant k ([4]; pH 9, 37 °C): 0.301
Percentage of Degradation of curcumin, Day 3 [5]: 6.8%
Percentage of Degradation of curcumin, Day 10 [5]: 13.5%
Percentage of Degradation of curcumin, Day 18 [5]: 16.9%
Percentage of Degradation of curcumin, Day 26 [5]: 26%
Percentage of Degradation of curcumin, Day 30 [5]: 32.3%
Structure (SMILES): COc1cc(/C=C/C(=O)CC(=O)/C=C/c2ccc(O)c(OC)c2)ccc1O [Curcumin, curcumin]
Apoptotic cells (%) (C6 tumor cell line): 35.64%
Dead cells (%) (C6 tumor cell line): 14.33%
Living cells (%) (C6 tumor cell line): 37.92%
Preapoptotic cells (%) (C6 tumor cell line): 12.11%
Apoptotic cells (%) (V79-4 normal cell line): 27.09%
Dead cells (%) (V79-4 normal cell line): 17.93%
Living cells (%) (V79-4 normal cell line): 43.47%
viability at 48 h, 1.875 μg/mL (Cytotoxicity, MTT assay): 75.8%
viability at 48 h, 3.75 μg/mL (Cytotoxicity, MTT assay): 60.9%
viability at 48 h, 7.5 μg/mL (Cytotoxicity, MTT assay): 52.7%
viability at 48 h, 15 μg/mL (Cytotoxicity, MTT assay): 41.6%
viability at 1.875 µg/mL (C6 tumor cells): 62.3%
viability at 3.75 µg/mL (C6 tumor cells): 55.8%
viability at 7.5 µg/mL (C6 tumor cells): 39.2%
viability at 15 µg/mL (C6 tumor cells): 37.4%
IC50 (C6 tumor cells; [6]): 6.31 µg/mL (≈ 17.1 µM)
IC50 (C6 tumor cells; read-out: IC50 for μg/mL for CURC on the C6 Cell Line): 6.31 µg/mL (≈ 17.1 µM)
Percentage of dead cells per C6 cell line (cytotoxic effect) (C6 tumor cells; rat, 1.875 μg/mL): 37.66%
Percentage of dead cells per C6 cell line (cytotoxic effect) (C6 tumor cells; rat, 3.75 μg/mL): 44.22%
Percentage of dead cells per C6 cell line (cytotoxic effect) (C6 tumor cells; rat, 7.5 μg/mL): 60.84%
Percentage of dead cells per C6 cell line (cytotoxic effect) (C6 tumor cells; rat, 15 μg/mL): 62.63%
Percentage of dead cells per V79-4 cell line (cytotoxic effect) (normal V79-4 cells; 1.875 μg/mL): 24.21%
Percentage of dead cells per V79-4 cell line (cytotoxic effect) (normal V79-4 cells; 3.75 μg/mL): 39.14%
Percentage of dead cells per V79-4 cell line (cytotoxic effect) (normal V79-4 cells; 7.5 μg/mL): 47.33%
Percentage of dead cells per V79-4 cell line (cytotoxic effect) (normal V79-4 cells; 15 μg/mL): 58.41%
IC50 (normal V79-4 cells; read-out: IC 50 μg/mL for CURC on the V79-4 Cell Line): 10.4 µg/mL (≈ 28.1 µM)
IC50 (normal V79-4 cells; [7]): 10.4 µg/mL (≈ 28.1 µM)
